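1) Cells in 96-well plates. 2) Compound, 48 h, 5 concentrations. 3) Linear interpolation between surrounding doses. 4) Unreached endpoint = highest concentration. GI50 = concentration required for 50% inhibition of growth. The concentration for full growth arrest is given as TGI.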
Legend:
Experiment in all cases: growth of human tumour cells (NCI), 48 h
RPMI-8226 leukemia = system: RPMI-8226 leukemia
NCI-H522 lung = system: NCI-H522 lung
SF-539 CNS = system: SF-539 CNS
SF-268 CNS = system: SF-268 CNS
HL-60(TB) leukemia = system: HL-60(TB) leukemia
MOLT-4 leukemia = system: MOLT-4 leukemia
SK-MEL-28 melanoma = system: SK-MEL-28 melanoma
ACHN renal = system: ACHN renal
HCT-15 colon = system: HCT-15 colon
A498 renal = system: A498 renal

| Structure (SMILES) | GI50 (RPMI-8226 leukemia) [nM] | TGI (RPMI-8226 leukemia) [µM] | GI50 (NCI-H522 lung) [nM] | TGI (NCI-H522 lung) [µM] | GI50 (SF-539 CNS) [nM] | TGI (SF-539 CNS) [µM] | GI50 (SF-268 CNS) [nM] | TGI (SF-268 CNS) [µM] | GI50 (HL-60(TB) leukemia) [nM] | TGI (HL-60(TB) leukemia) [µM] | GI50 (MOLT-4 leukemia) [nM] | TGI (MOLT-4 leukemia) [µM] | GI50 (SK-MEL-28 melanoma) [nM] | TGI (SK-MEL-28 melanoma) [µM] | GI50 (ACHN renal) [nM] | TGI (ACHN renal) [µM] | GI50 (HCT-15 colon) [nM] | TGI (HCT-15 colon) [µM] | GI50 (A498 renal) [nM] | TGI (A498 renal) [µM] |
| --- | --- | --- | --- | --- | --- | --- | --- | --- | --- | --- | --- | --- | --- | --- | --- | --- | --- | --- | --- | --- |
| COc1ccc(/C=C(/C(=O)N2CCN(c3ccccc3)CC2)c2cc(OC)c(OC)c(OC)c2)cc1N | 327 | 12 | 242 | 0.91 | 223 | 0.797 | 711 | > 100 | 241 | 0.596 | 524 | > 100 | 1470 | > 100 | 612 | > 100 | 388 | > 100 | 142 | 0.778 |
| Cc1ccc(S(=O)(=O)c2ccc(NC(=O)SCCC(=O)O)cc2)cc1 | – | > 100 | – | > 100 | – | > 100 | – | > 100 | – | > 100 | – | > 100 | – | > 100 | – | > 100 | – | > 100 | – | > 100 |
| COc1ccc(OC(C)=O)c2c1CCC=CC2=O | – | 3.96 | – | 3.8 | – | 30.9 | – | – | – | 6.7 | – | 33.1 | – | 28.6 | – | 32 | – | 30.1 | – | 37.5 |
| Cc1cc(Cl)cc2c(N=Nc3ccc(S(N)(=O)=O)cc3)c(O)[nH]c12 | > 25000 | > 25 | > 25000 | > 25 | > 25000 | > 25 | > 25000 | > 25 | > 25000 | > 25 | > 25000 | > 25 | > 25000 | > 25 | > 25000 | > 25 | > 25000 | > 25 | > 25000 | > 25 |
| COC(=O)C1=Cc2cc(OC)c(OC)c(OC)c2[C@H](c2cc(OC)c(OC)c(OC)c2)C1C(=O)OC (stereo partly specified) | – | > 100 | – | > 100 | – | > 100 | – | > 100 | – | > 100 | – | > 100 | – | > 100 | – | > 100 | – | > 100 | – | > 100 |
| Cc1ccc(Cl)cc1Nc1nc(C(F)(F)F)ccc1C(=O)N/N=C/c1cccnc1 | 2940 | > 32.5 | 6640 | 22.5 | 2450 | 10 | 1550 | 9.32 | 1500 | > 46 | 1420 | 10.7 | 4240 | 15.8 | 3630 | 13.1 | 693 | 13.7 | 2950 | 11.7 |
| CN(C)c1ccc(/C=C/c2ccnc3c(O)cccc23)cc1 | 482 | > 100 | 257 | 1.72 | 344 | 3.33 | 463 | > 100 | 292 | 1.75 | 357 | > 100 | 624 | > 100 | 337 | > 100 | 335 | > 100 | 3390 | > 100 |
| CN1CCC(COc2cnc(-c3cccc(Cn4nc(-c5cccc(C#N)c5)ccc4=O)c3)nc2)CC1 | 2640 | 9.21 | 2270 | 5.06 | 1700 | 3.3 | 3810 | 16.4 | 2000 | 4.02 | 2530 | 6.62 | 1820 | 3.52 | 2380 | 5.78 | 3470 | 15.5 | 7200 | 20.6 |
| O=C(c1ccco1)c1nc2cc(C(F)(F)F)ccc2nc1C(F)(F)F | 49800 | > 100 | > 100000 | > 100 | > 100000 | > 100 | > 100000 | > 100 | 22200 | 69.2 | > 100000 | > 100 | > 100000 | > 100 | > 100000 | > 100 | > 100000 | > 100 | > 100000 | > 100 |
| O=C(COc1ccc(/C=C2\COc3ccccc3C2=O)cc1)Nc1nccs1 | 2250 | 6.28 | 1910 | 4.39 | 15000 | 29.4 | 6810 | 21.7 | 1680 | 3.48 | 1600 | 3.76 | 13200 | 26.1 | 16600 | 42.3 | 5050 | 23.8 | 19300 | 33.7 |
| COc1ccc(C(=O)Nc2ncc(Cc3cccc(Cl)c3)s2)cc1OC | 474 | 8.23 | 921 | > 100 | 312 | 2.5 | 882 | > 100 | 325 | > 71 | 374 | > 100 | 119 | > 100 | 81.2 | > 100 | 63.1 | > 100 | 211 | 1.89 |
| COc1ccc2sc3cccc(NCCN(C)C)c3c(=O)c2c1 | 2220 | 5.16 | 2790 | 10.1 | 3520 | 13.3 | 3810 | 14.4 | 2160 | 4.74 | 2500 | 6.01 | 2260 | 5.3 | 2400 | 6.92 | 2240 | 6.65 | 1200 | 9.38 |
| CN(C)c1ccc(/C=C/C(=O)[O-])cc1.CN(C)c1ccc(/C=C/C(=O)[O-])cc1.[Cu+2] | – | > 100 | – | > 100 | – | > 100 | – | > 100 | – | > 100 | – | > 100 | > 69800 | > 100 | – | > 100 | – | > 100 | – | > 86.4 |
| CCOC(=O)[C@@H](C)C[C@H](Cc1ccccc1)NC(=O)c1nc([C@@H](C[C@H](C(C)C)N(C)C(=O)[C@@H](NC(=O)[C@H]2CCCCN2C)C(C)C)OC(C)=O)sc1CCOCc1ccccc1 | 107 | 2.53 | 29 | 0.319 | 57.1 | 0.39 | 158 | 2.3 | 39.4 | 0.19 | 132 | 5.61 | 540 | 2.72 | 117 | 3.06 | 262 | 1.51 | 26.4 | 0.417 |
| CCOC(=O)c1ccc(Nc2sc(C(=O)c3ccc(Br)cc3)c(N)c2C#N)cc1 | 2570 | > 72.3 | 530 | > 100 | 1070 | > 100 | 2560 | > 100 | 421 | > 25.2 | 4610 | > 100 | 4810 | > 100 | 3240 | > 100 | 662 | > 100 | 321 | 6.02 |
| Cc1cccc(-c2[nH]ncc2-c2ccc3ncccc3n2)n1 | > 15100 | > 25 | > 25000 | > 25 | 17400 | > 25 | 10500 | > 25 | 10000 | > 23.7 | 14200 | > 25 | 13300 | > 25 | 7100 | > 25 | 9980 | > 25 | > 14100 | > 25 |
| CCOC(=O)c1ccccc1OC(=O)NNc1ccccc1 | 1110 | > 100 | 1670 | > 100 | 312 | 1.33 | 12100 | > 100 | 365 | – | 465 | > 100 | > 59600 | > 100 | 587 | > 100 | 862 | > 100 | > 68000 | > 100 |
| CC1(C)N=C(N)N=C(N)N1c1ccc(CCCCc2ccccc2)c(Cl)c1 | 127 | 11.6 | 50 | 1.83 | 121 | 5.14 | 53.6 | 13.7 | – | 3.26 | 95 | 11.3 | 530 | 13.4 | 461 | 22.1 | 522 | 35.5 | 746 | 14.5 |
| C=C(C)[C@@H]1CC[C@]2(COCCC#N)CC[C@]3(C)[C@H](CC[C@@H]4[C@@](C)(CCCNCCC#N)[C@H](C(=C)C)CC[C@]43C)[C@@H]12 | 10700 | 31.4 | 8550 | 23.4 | 9780 | 20.4 | 23500 | > 50 | 8470 | 20.5 | 7720 | 25 | 9260 | 18 | 13200 | > 50 | 7660 | 16.6 | > 50000 | > 50 |
| COc1cc(/C=C2\C[C@H]3[C@@H]4CC=C5C[C@@H](O)CC[C@]5(C)[C@H]4CC[C@]3(C)[C@H]2O)ccc1OCCN1CCCC1 | 5530 | 25.5 | 18000 | > 50 | 8280 | 17.6 | 9720 | 22.8 | 9960 | 19 | 2460 | 11.3 | – | – | 8380 | 16.9 | 11800 | 38 | 25100 | > 50 |
| Cc1ccc(NC(=O)c2ccc(CN3CCN(C)CC3)cc2)cc1Nc1nccc(-c2cccnc2)n1 | 7560 | 28.1 | 16100 | 32.7 | 8060 | 22.4 | 25600 | 71 | 16000 | 35.9 | 5110 | 41.4 | 15100 | 29.6 | 24100 | 72.9 | 16200 | 80.5 | 20600 | 39.2 |
| CO/C=C/C(=O)c1cc2cnc3c(=N)cc(NC(=O)C(C)C)c([nH]1)c23 | 14.9 | 0.0906 | 969 | 11 | 59.6 | 0.333 | 61.6 | 0.918 | 32 | 0.295 | 15.9 | 0.166 | 58.7 | 0.509 | 100 | 1.67 | 43.1 | 0.99 | 100 | 0.602 |
| COC1=CC(c2ccc[nH]2)=N/C1=C\c1[nH]c(C)c(CC(=O)OCc2ccccc2)c1CCC(=O)OCc1ccccc1 | 234 | 0.76 | 302 | 1.85 | 458 | 1.74 | 464 | – | 490 | 2.66 | 309 | 2.01 | – | – | 333 | 1.02 | 313 | 1.18 | 288 | 2.42 |
| Cc1c(O)c2ccccc2oc1=O | – | > 100 | – | > 100 | – | > 100 | – | > 100 | – | > 100 | – | > 100 | – | > 100 | – | > 100 | – | > 100 | – | > 100 |
| Nc1cc(F)ccc1CC(=O)O | – | > 100 | – | > 100 | – | > 100 | – | > 100 | – | > 100 | – | > 100 | – | > 100 | – | > 100 | – | > 100 | – | > 100 |
| CSc1ccc(-c2ccccc(=O)c2O)cc1 | 428 | 26.9 | 470 | 55.9 | 394 | 11.6 | 625 | > 100 | 283 | 1.55 | 348 | > 100 | 663 | 32.9 | 397 | 71.1 | 172 | 29.7 | 2710 | 19 |
| CCN(CC)CCNc1ccc(C)c2sc3cc(Cl)ccc3c(=O)c12 | 1790 | 3.86 | 2040 | 3.77 | 1600 | 3 | 1680 | 3.37 | 1810 | 3.71 | 1550 | 3.28 | 1910 | 3.52 | – | – | 1500 | 3.12 | 1890 | 4.79 |

Source: PubChem BioAssay (NCI)
